Results from ChEMBL document CHEMBL3297733, “Discovery and optimization of pyrrolo[1,2-a]pyrazinones leads to novel and selective inhibitors of PIM kinases” (Bioorg Med Chem, 2013).

How the values were obtained:
[1] = Intrinsic clearance in dog hepatocytes; format: ADME, cell-based, Canis lupus familiaris, Hepatocyte; conditions: read-out: CLH
[2] = Cytotoxicity against mouse BA/F3 cells overexpressing PIM1 after 72 hrs by CellTitre-Glo assay; format: functional, cell-based; conditions: BaF3, 72 h
[3] = target: ALK tyrosine kinase receptor (Homo sapiens, UniProt Q9UM73); experiment: Inhibition of ALK (unknown origin)
[4] = target: Serine/threonine-protein kinase pim-1 (Mus musculus) (UniProt P06803); experiment: Inhibition of PIM1 in mouse BA/F3 cells assessed as phosphorylation of BAD at S112 after 24 hrs by Western blotting analysis; format: cell-based; conditions: BaF3
Cytochrome P450 3A4 = Cytochrome P450 3A4 (Homo sapiens, UniProt P08684); experiment: Inhibition of CYP3A4 (unknown origin); format: ADME
Casein kinase II = Casein kinase II (Homo sapiens, UniProt P19784+P67870+P68400); experiment: Inhibition of CK2 (unknown origin); format: protein-complex assay
[5] = target: Serine/threonine-protein kinase haspin (Homo sapiens, UniProt Q8TF76); experiment: Inhibition of haspin (unknown origin)
[6] = target: Platelet-derived growth factor receptor (Homo sapiens, UniProt P09619+P16234); experiment: Inhibition of PDGFR (unknown origin); format: protein-complex assay
[7] = Cytotoxicity against human Capan1 cells after 72 hrs by CellTitre-Glo assay; format: functional, cell-based; conditions: CAPAN-1, 72 h
Focal adhesion kinase 1 = Focal adhesion kinase 1 (Homo sapiens, UniProt Q05397); experiment: Inhibition of FAK (unknown origin)
LNCaP = experiment: Cytotoxicity against human LNCAP cells after 72 hrs by CellTitre-Glo assay; format: functional, cell-based
[8] = Volume of distribution at steady state in BALB/c mouse at 8.2 mg/kg, iv; format: ADME, organism-based; parameters: dose 8.2 mg/kg, route intravenous; conditions: in vivo, read-out: Vdss
[9] = target: Vascular endothelial growth factor receptor 3 (Homo sapiens, UniProt P35916); experiment: Inhibition of VGFR3 (unknown origin)
[10] = target: Receptor-type tyrosine-protein kinase FLT3 (Homo sapiens, UniProt P36888); experiment: Inhibition of FLT3 (unknown origin)
[11] = AUC in BALB/c mouse at 8.2 mg/kg, po; format: ADME, organism-based; parameters: dose 8.2 mg/kg, route oral; conditions: plasma
[12] = Oral bioavailability in BALB/c mouse at 8.2 mg/kg; format: ADME, organism-based; conditions: in vivo
MV4-11 = experiment: Cytotoxicity against human MV4-11 cells after 72 hrs by CellTitre-Glo assay; format: functional, cell-based; conditions: MV4-11, 72 h
[13] = target: Tyrosine-protein kinase ZAP-70 (Homo sapiens, UniProt P43403); experiment: Inhibition of ZAP70 (unknown origin)
[14] = Inhibition of SULU1 (unknown origin); parameters: species or system Homo sapiens
[15] = target: Tyrosine-protein kinase ABL1 (Homo sapiens, UniProt P00519); experiment: Inhibition of Bcr-ABL (unknown origin)
[16] = Cytotoxicity against mouse BA/F3 cells after 72 hrs by CellTitre-Glo assay; format: cell-based; conditions: BaF3, 72 h
[17] = target: MAP kinase-activated protein kinase 2 (Homo sapiens, UniProt P49137); experiment: Inhibition of MAPKAPK2 (unknown origin)
hERG (KCNH2) = hERG (KCNH2) (Homo sapiens, UniProt Q12809); experiment: Inhibition of human ERG channel at 10 uM
[18] = Intrinsic clearance in human liver microsomes after 5 mins by LC-MS/MS analysis; format: ADME; conditions: read-out: CLH
[19] = target: RAC-alpha serine/threonine-protein kinase (Homo sapiens, UniProt P31749); experiment: Inhibition of AKT1 (unknown origin)
[20] = target: MAP kinase-interacting serine/threonine-protein kinase 2 (Homo sapiens, UniProt Q9HBH9); experiment: Inhibition of MNK2 (unknown origin)
[21] = target: Non-receptor tyrosine-protein kinase TYK2 (Homo sapiens, UniProt P29597); experiment: Inhibition of TYK2 (unknown origin)
[22] = target: CDC7/DBF4 (Cell division cycle 7-related protein kinase/Activator of S phase kinase) (Homo sapiens, UniProt O00311); experiment: Inhibition of CDC7/DBF4 (unknown origin); format: protein-complex assay
[23] = target: Serine/threonine-protein kinase 26 (Homo sapiens, UniProt Q9P289); experiment: Inhibition of MST4 (unknown origin)
[24] = target: Tyrosine-protein kinase Lck (Homo sapiens, UniProt P06239); experiment: Inhibition of LCK (unknown origin)
Cytochrome P450 2D6 = Cytochrome P450 2D6 (Homo sapiens, UniProt P10635); experiment: Inhibition of CYP2D6 (unknown origin); format: ADME
[25] = Clearance in human hepatocytes; format: ADME, cell-based, Hepatocyte; conditions: read-out: CLH
Insulin receptor = Insulin receptor (Homo sapiens, UniProt P06213); experiment: Inhibition of IR (unknown origin)
[26] = target: Serine/threonine-protein kinase pim-1 (Mus musculus) (UniProt P06803); experiment: Inhibition of PIM1 in mouse BA/F3 cells assessed as c-Myc degradation after 24 hrs by Western blotting analysis; format: cell-based; conditions: BaF3

Sequence of Serine/threonine-protein kinase pim-1 (Mus musculus) (P06803 whole entry, looked up): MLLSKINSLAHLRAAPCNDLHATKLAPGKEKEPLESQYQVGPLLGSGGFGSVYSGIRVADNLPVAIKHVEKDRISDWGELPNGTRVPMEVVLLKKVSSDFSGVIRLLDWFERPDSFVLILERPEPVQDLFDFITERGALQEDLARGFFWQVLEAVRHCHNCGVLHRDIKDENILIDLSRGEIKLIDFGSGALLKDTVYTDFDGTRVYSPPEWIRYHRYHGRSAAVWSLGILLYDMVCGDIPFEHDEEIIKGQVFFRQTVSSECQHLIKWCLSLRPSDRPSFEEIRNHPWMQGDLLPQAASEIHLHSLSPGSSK
Sequence of Tyrosine-protein kinase ZAP-70 (P43403 whole entry): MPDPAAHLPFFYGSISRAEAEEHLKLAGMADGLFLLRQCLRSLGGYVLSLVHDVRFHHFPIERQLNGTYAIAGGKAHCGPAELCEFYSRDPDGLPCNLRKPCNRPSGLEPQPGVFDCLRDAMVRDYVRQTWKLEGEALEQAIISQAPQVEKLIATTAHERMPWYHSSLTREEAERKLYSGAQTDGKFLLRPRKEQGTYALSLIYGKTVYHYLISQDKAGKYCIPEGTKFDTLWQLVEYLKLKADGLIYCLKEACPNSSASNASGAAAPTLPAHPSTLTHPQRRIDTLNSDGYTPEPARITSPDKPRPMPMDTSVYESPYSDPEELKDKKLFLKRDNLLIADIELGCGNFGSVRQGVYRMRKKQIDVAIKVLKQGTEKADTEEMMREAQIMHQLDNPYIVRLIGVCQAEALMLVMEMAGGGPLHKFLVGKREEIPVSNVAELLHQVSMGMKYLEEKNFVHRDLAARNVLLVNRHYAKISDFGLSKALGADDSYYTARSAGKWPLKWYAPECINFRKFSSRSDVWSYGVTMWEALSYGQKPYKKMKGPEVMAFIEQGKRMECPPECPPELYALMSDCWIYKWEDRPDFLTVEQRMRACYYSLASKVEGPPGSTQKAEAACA
Sequence of ALK tyrosine kinase receptor (Q9UM73 whole entry): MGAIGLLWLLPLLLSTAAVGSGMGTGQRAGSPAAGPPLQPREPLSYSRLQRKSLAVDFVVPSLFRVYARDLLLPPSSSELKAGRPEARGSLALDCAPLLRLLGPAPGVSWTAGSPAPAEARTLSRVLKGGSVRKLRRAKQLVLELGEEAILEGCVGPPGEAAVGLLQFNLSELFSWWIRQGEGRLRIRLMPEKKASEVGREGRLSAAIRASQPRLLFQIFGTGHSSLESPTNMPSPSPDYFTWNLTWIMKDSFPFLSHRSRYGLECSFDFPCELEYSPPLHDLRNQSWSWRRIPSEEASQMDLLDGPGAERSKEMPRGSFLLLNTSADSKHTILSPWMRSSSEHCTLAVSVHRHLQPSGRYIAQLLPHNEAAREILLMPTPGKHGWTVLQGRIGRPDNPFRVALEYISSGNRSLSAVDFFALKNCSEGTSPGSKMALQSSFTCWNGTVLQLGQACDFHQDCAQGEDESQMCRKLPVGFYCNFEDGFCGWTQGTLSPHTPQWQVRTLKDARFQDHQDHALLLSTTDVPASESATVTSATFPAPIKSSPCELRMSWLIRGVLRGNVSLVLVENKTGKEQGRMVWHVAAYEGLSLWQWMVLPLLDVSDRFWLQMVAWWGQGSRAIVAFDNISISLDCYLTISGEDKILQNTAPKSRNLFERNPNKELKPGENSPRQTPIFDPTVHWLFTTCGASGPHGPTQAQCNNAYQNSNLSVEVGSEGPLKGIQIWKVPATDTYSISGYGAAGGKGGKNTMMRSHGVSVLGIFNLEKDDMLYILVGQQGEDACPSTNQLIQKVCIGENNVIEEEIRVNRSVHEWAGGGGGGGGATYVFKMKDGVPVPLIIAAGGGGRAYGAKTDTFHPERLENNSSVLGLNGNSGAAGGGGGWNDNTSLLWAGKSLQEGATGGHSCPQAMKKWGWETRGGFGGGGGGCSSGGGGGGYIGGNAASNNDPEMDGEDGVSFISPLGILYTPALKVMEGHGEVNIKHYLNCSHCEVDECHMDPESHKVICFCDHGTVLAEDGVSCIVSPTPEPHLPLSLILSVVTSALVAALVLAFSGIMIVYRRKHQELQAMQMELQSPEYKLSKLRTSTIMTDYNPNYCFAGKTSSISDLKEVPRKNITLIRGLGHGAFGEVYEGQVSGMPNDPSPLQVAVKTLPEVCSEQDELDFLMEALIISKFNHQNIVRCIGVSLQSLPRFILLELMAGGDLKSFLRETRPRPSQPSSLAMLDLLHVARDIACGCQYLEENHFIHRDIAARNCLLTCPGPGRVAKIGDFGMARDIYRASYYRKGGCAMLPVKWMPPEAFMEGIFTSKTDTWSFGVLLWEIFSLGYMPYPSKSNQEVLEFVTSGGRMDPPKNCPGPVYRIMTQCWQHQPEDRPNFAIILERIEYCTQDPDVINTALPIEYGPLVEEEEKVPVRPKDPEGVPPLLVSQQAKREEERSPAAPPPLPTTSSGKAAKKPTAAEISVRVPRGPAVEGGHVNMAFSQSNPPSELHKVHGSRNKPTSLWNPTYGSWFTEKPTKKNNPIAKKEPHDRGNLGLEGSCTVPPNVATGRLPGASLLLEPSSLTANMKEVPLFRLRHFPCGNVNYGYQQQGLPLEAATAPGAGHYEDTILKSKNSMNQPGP
Sequence of Cytochrome P450 2D6 (P10635 whole entry): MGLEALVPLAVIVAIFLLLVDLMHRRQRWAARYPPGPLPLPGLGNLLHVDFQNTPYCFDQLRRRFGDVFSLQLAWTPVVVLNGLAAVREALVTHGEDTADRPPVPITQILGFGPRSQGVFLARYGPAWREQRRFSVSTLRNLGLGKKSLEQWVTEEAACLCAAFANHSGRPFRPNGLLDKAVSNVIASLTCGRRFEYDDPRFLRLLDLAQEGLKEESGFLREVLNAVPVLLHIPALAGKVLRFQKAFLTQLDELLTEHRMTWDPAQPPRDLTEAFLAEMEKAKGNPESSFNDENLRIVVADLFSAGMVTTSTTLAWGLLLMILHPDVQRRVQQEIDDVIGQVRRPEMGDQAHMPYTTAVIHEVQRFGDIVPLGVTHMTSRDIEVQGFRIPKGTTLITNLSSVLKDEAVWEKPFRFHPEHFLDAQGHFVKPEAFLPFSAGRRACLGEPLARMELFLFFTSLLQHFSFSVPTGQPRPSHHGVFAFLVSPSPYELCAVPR
Sequence of MAP kinase-interacting serine/threonine-protein kinase 2 (Q9HBH9 whole entry): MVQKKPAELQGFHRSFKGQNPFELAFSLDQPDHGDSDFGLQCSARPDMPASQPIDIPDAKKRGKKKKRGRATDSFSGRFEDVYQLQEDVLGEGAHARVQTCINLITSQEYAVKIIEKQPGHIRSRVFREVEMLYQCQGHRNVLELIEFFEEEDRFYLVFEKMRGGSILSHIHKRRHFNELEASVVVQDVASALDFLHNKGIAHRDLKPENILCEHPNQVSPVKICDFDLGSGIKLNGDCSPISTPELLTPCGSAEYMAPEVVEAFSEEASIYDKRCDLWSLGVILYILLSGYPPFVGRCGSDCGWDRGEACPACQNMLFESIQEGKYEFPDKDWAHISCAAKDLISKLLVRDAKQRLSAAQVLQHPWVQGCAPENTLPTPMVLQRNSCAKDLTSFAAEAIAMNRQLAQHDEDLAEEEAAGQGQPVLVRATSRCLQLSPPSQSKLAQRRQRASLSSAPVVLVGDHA
Sequence of Casein kinase II (P67870 whole entry): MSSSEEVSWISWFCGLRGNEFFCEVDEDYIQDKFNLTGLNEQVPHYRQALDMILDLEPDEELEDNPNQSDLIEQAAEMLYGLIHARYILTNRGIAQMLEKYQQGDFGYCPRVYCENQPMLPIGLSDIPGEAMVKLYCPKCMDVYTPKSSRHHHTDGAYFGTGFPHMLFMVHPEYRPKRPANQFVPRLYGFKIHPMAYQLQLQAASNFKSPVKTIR
Sequence of Casein kinase II (P68400 whole entry): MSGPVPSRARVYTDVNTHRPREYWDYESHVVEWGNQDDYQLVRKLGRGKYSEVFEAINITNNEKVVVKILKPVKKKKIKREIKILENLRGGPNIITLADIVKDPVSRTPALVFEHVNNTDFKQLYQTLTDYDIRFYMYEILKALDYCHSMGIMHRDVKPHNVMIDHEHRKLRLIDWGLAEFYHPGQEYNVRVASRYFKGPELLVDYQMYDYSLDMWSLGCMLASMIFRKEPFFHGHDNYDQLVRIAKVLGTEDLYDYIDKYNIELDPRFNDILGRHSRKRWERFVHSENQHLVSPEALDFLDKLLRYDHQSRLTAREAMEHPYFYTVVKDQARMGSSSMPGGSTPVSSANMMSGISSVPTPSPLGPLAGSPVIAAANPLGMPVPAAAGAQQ
Sequence of Casein kinase II (P19784 whole entry): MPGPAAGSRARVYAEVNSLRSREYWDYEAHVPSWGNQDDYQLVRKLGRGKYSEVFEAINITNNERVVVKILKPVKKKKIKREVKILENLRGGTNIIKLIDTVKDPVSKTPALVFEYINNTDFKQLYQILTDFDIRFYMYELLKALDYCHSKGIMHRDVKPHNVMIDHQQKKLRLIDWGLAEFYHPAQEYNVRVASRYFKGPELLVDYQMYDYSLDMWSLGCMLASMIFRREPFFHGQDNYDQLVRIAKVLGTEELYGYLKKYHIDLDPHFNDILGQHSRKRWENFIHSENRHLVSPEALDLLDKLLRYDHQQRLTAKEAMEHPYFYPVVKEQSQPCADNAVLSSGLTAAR
Sequence of RAC-alpha serine/threonine-protein kinase (P31749 whole entry): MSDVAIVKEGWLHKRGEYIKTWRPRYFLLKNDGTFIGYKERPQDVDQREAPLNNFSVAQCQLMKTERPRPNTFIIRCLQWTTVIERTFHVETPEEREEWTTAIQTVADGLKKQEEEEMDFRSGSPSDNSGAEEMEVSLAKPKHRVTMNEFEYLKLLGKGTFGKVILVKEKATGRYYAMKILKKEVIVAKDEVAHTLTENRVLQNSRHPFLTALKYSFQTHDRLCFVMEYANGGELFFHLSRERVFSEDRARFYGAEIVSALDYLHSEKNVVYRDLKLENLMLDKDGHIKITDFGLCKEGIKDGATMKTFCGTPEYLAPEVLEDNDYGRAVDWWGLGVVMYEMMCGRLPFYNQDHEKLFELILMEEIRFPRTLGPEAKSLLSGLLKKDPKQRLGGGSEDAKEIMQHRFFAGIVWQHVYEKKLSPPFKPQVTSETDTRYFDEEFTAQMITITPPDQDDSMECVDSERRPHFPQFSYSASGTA

SMILES: CN1CCN(C[C@@H](NC(=O)C[C@H]2CNC(=O)c3cc(-c4cccc(Cl)c4)cn32)C2CCCCC2)CC1
- CLint scaled [1]: 11 mL/min/kg
- IC50 [2]: 0.125 µM
- IC50 [3]: > 10 µM
- inhibition [4]: Dose-dependent effect
- IC50 (Cytochrome P450 3A4): > 10 µM
- IC50 (Casein kinase II): > 10 µM
- IC50 [5]: > 10 µM
- IC50 [6]: > 10 µM
- IC50 [7]: 3.7 µM
- IC50 (Focal adhesion kinase 1): > 10 µM
- IC50 (LNCaP): 3.31 µM
- Vd [8]: 11.3 L/kg
- IC50 [9]: > 10 µM
- IC50 [10]: > 10 µM
- AUC [11]: 0.05 µM·h
- bioavailability [12]: 0.65%
- IC50 (MV4-11): 1.53 µM
- IC50 [13]: > 10 µM
- IC50 [14]: > 10 µM
- IC50 [15]: > 10 µM
- IC50 [16]: > 10 µM
- IC50 [17]: > 10 µM
- inhibition at 10 µM (hERG (KCNH2)): 16%
- CLint scaled [18]: 5.9 mL/min/kg
- IC50 [19]: > 10 µM
- IC50 [20]: > 10 µM
- IC50 [21]: > 10 µM
- IC50 [22]: > 10 µM
- IC50 [23]: > 10 µM
- IC50 [24]: > 10 µM
- IC50 (Cytochrome P450 2D6): > 10 µM
- CLint scaled [25]: 5.9 mL/min/kg
- IC50 (Insulin receptor): > 10 µM
- inhibition [26]: Dose-dependent effect
